Entries after “also recorded” stand apart in the source; their conditions may differ. One block for each compound: values may come before it.
Assays:
[1] = In vitro stability of ^89Zr complexes in formulation buffer (radio-TLC / iTLC); type: physicochemical; details: formulation buffer (3 mM gentisic acid + 0.25 M NaOAc, pH 5.5), 37 °C
Method: (§1) Stability studies were performed on ^89Zr labeled AAZTHAS and AAZTHAG to test the effect of the pendant arm length on complex stability. The stability of the two ^89Zr-complexes was investigated by radio-TLC after incubation for 72 h at 37 °C in formulation buffer, EDTA 5 mM (1000-fold excess), and human serum (HS).
(§2) After the purification step and analysis of the radioactive complex via radio-HPLC, the stability assessment of the complex at different time points and in different solutions was carried out. ^89Zr-AAZTHAS and ^89Zr-AAZTHAG were dissolved in formulation buffer, EDTA 5 mM, and human serum in 1:5 v/v ratio and were incubated at 37 °C up to 96 h. […] At each time point the stability was evaluated by radio-iTLC (Elution solution 1) using an instant thin-layer chromatographic strip (iTLC, Agilent).

[2] = In vitro stability of ^89Zr complexes in human serum (radio-TLC / iTLC); type: in vitro ADME; details: for % of ^89Zr complexed over total activity: human serum (HS)
Method: as §1, §2

[3] = In vitro stability of ^89Zr complexes in EDTA solution (transchelation challenge, radio-TLC / iTLC); type: physicochemical; set-up: dose or concentration left out as unconfirmed; details: 37 °C
Method: Stability studies were performed on ^89Zr labeled AAZTHAS and AAZTHAG to test the effect of the pendant arm length on complex stability. […]
as §2

[4] = Ex vivo biodistribution (tracer accumulation in organs, γ-counter) 24 h p.i.; set-up: species or system female athymic Nude-Foxn1nu/nu mice; details: i.v. tail vein, n = 3, ± SD
Method: (§3) In order to study the biodistribution and the in vivo stability of the ^89Zr-AAZTHAG, 8 weeks old pathogen-free female athymic Nude-Foxn1nu/nu mice (Charles River Laboratories, Sulzfeld, Germany) (n = 3) were injected via a catheter in the tail vein with 2.9 ± 0.1 MBq of ^89Zr-AAZTHAG in 300 μL NaCl 0.9% solution, and imaged at different time points (30 min, 3 h, 6 h, 9 h, 12 h, 24 h) via PET/CT static acquisition using an Inveon Small Animal PET/CT scanner (Siemens, Knoxville, TN, USA).
Biodistribution studies were also performed to assess the in vivo distribution of the ^89Zr-AAZTHAG complex and evaluate its in vivo stability. After sacrifice, the mice by anesthesia, blood, and other selected organs were collected, weighed, and the activity was measured by a γ-counter. The tracer accumulation in selected organs was expressed as a percentage of injected dose per gram of tissue (%ID/g).

[5] = Small animal PET/CT static scans at different time points; type: in vivo, healthy female nude mice; details: six time points 30 min to 24 h, n = 3
Method: Based on the good preliminary in vitro stability results, we investigated the behavior of ^89Zr-AAZTHAG in vivo in healthy female nude mice (n = 3) by acquiring PET/CT images at six different time points (30 min, 3 h, 6 h, 9 h, 12 h, and 24 h), and mice were then sacrificed 24 h p.i. to perform a biodistribution study.
as §3

% of ^89Zr complexed over total activity ([1]; Day 0): 91.5 ± 10.6% | % of ^89Zr complexed over total activity ([1]; Day 1): 83.0 ± 6.5% | % of ^89Zr complexed over total activity ([1]; Day 2): 78.1 ± 13.8% | % of ^89Zr complexed over total activity ([1]; Day 3 (72 h)): 73 ± 5% | % of ^89Zr complexed over total activity ([1]; Day 3 (72 h), listed as AAZTHAG): 73.0 ± 5.2% | Time for which the ^89Zr-complex is stable in HS ([2]; human serum): at least 4 h | % of ^89Zr complexed over total activity ([2]; 37 °C, Day 0): 92.0 ± 11.3% | % of ^89Zr complexed over total activity ([2]; 37 °C, Day 1): 77.7 ± 18.6% | % of ^89Zr complexed over total activity ([2]; 37 °C, Day 2): 76.9 ± 15.4% | % of ^89Zr complexed over total activity ([2]; 37 °C, Day 3 (72 h)): 87 ± 5% | % of ^89Zr complexed over total activity ([2]; 37 °C, Day 3 (72 h), listed as AAZTHAG): 86.4 ± 5.5% | % of ^89Zr complexed over total activity ([3]; Day 0): 30.6 ± 30.3% | % of ^89Zr complexed over total activity ([3]; Day 1): 4.4 ± 3.9% | % of ^89Zr complexed over total activity ([3]; Day 2): 2.4 ± 0.1% | % of ^89Zr complexed over total activity ([3]; Day 3): 3.2 ± 2.6% | Radioactivity accumulated in bladder ([4]; Bladder): 0.049 ± 0.010 %ID/g | Radioactivity accumulated in blood ([4]; Blood): 0.007 ± 0.005 %ID/g | Radioactivity accumulated in brain ([4]; Brain): 0.002 ± 0.001 %ID/g | Radioactivity accumulated in femur ([4]; Femur): 0.193 ± 0.108 %ID/g | Radioactivity accumulated in heart ([4]; Heart): 0.010 ± 0.004 %ID/g | Radioactivity accumulated in kidney ([4]; Kidney): 0.575 ± 0.199 %ID/g | Radioactivity accumulated in large intestine ([4]; Large Intestine): 0.020 ± 0.010 %ID/g | Radioactivity accumulated in liver ([4]; Liver): 0.041 ± 0.010 %ID/g | Radioactivity accumulated in lung ([4]; Lung): 0.021 ± 0.007 %ID/g | Radioactivity accumulated in muscle ([4]; Muscle): 0.006 ± 0.002 %ID/g | Radioactivity accumulated in pancreas ([4]; Pancreas): 0.016 ± 0.008 %ID/g | Radioactivity accumulated in small intestine ([4]; Small Intestine): 0.012 ± 0.006 %ID/g | Radioactivity accumulated in spleen ([4]; Spleen): 0.029 ± 0.005 %ID/g | Radioactivity accumulated in stomach ([4]; Stomach): 0.014 ± 0.005 %ID/g | Radioactivity accumulated in tail ([4]; Tail): 0.040 ± 0.013 %ID/g | Excretion route seen in PET/CT images [5]: hepatobiliary and renal excretion | Signal in bones during PET acquisition (release of Zr-89) [5]: low signal in bones
SMILES: CN(O)C(=O)CCCC(=O)NC1(C)CN(C(=O)CCCC(=O)N(C)O)CCN(C(=O)CCCC(=O)N(C)O)C1 [^89Zr-AAZTHAG, metal not drawn]

% of ^89Zr complexed over total activity ([1]; Day 0): 71.0% | % of ^89Zr complexed over total activity ([1]; Day 1): 63.3% | % of ^89Zr complexed over total activity ([1]; Day 2): 62.3% | % of ^89Zr complexed over total activity ([1]; Day 3 (72 h)): 42% | % of ^89Zr complexed over total activity ([2]; 37 °C, Day 0): 71.0% | % of ^89Zr complexed over total activity ([2]; 37 °C, Day 1): 76.8% | % of ^89Zr complexed over total activity ([2]; 37 °C, Day 2): 59.2% | % of ^89Zr complexed over total activity ([2]; 37 °C, Day 3 (72 h)): 46% | % of ^89Zr complexed over total activity ([3]; Day 0): 15.1% | % of ^89Zr complexed over total activity ([3]; Day 1): 1.0% | % of ^89Zr complexed over total activity ([3]; Day 2): 1.6%
SMILES: CN(O)C(=O)CCC(=O)NC1(C)CN(C(=O)CCC(=O)N(C)O)CCN(C(=O)CCC(=O)N(C)O)C1 [^89Zr-AAZTHAS, metal not drawn]
Behaviour of the complex on incubation in HS (precipitation) ([2]; human serum, 37 °C): tends to precipitate over time; also recorded: precipitates
